Results: patent publication US4661297A, “Basic ethers of 7-oxo-7H-benzo(c) fluorene and a process for their production” (SPOFA, spojene podniky pro zdravotnickou vyrobu, priority 1980, dated 1987)
pIC50: −log10 of the molar value. Counter-ions that a name gives are not always drawn. Like-named read-outs stand apart in the source and are kept apart here.

How the values were obtained:
La leukaemia = test: Effect on course of transplanted La leukaemia in mice; type: in vivo, mouse (C57 Bl); settings: s.c. 1×300 mg/kg, day 3; significant (&)
Source text: (§1) The therapeutic effect of the described compounds on transplanted tumors in experimental animals is shown in Tables 1-3, on the following five pages.
(§2) &=statistically significant differences versus control at P=0.05
La: La leukaemia in mice C57 Bl

Yoshida's Tumor = test: Inhibition of incorporation of labelled substrates in Yoshida's tumor; type: cell-based; settings: Rattus norvegicus, (U-14C) amino acid mixture, Table VI, read-out: IC50 (concentration lowering initial rate of 14C incorporation to 50% of control)
Source text: Tumor growth may be observed clinically or in experiments in vivo, that is, with experimental animals, or in vitro, for example, in tissue cultures prepared from tumors. Assessment of tumor growth may be effected by measuring the weight of the tumor mass or, more effectively, by measuring the radioactivity after incorporation therein of certain substances of natural origin such as amino acids, adenine, thymidine and the like labelled with radioactive atoms such as ^14 C, ^3 H, etc.
(§3) Thus, by way of exemplification, the IC^50 values (inhibitory concentration which lowered the initial rate of ^14 C incorporation to 50% of control) are shown in Table VI, below (Yoshida's Tumor, (U-^14 C) amino acid mixture)
The ^IC 50 values of compound 13468 are also shown in Table VII with varying substrates.

L1210 leukaemia = test: Effect on course of transplanted L1210 leukaemia in mice; type: in vivo, mouse (hybrid DBA/H); settings: s.c. 1×250 mg/kg, day 1; significant (&)
Source text: as §1, §2
L1210 : Leukaemia growing in the form of ascitic tumors in hybrid DBA/H mice

Yoshida's ascitic tumor = test: Effect on course of transplanted Yoshida's ascitic tumor in rats; type: in vivo, rat (Wistar); settings: days 1-5, Tables I and II, significant (&)
Source text: as §1, §2
Y: Yoshida's ascitic tumor in Wistar rats

[1] = tested on: HK: solid tumors, originally spontaneous mammary-gland adenocarcinoma; test: Effect on course of transplanted HK solid mammary-gland adenocarcinoma in mice; type: in vivo, mouse (H); settings: s.c. 8×25 mg/kg, days 5-10,12,13
Source text: as §1, §2
HK: Solid tumors, originally spontaneous mammary-gland adenocarcinoma in H mice

Acute toxicity in mice = settings: mouse, in vivo, sc; subcutaneously; mice S, males 22-24 gram
Source text: The anti-tumor compounds described herein have also been studied from the standpoint of toxicity and the conclusion drawn that they are not toxic to mammalian hosts. The toxicological data set forth in Table IX, below, supports this conclusion.

[2] = tested on: Ehrlich's ascitic carcinoma; test: Incorporation of 14C-adenine and 14C-valine into cellular fraction of Ehrlich's ascitic carcinoma in vitro; type: cell-based, mouse; settings: for Radioactivity incorporation, adenine: control 1060 cpm; for Radioactivity incorporation, valine: control 2455 cpm; for activity at 75 µM / activity at 150 µM / activity at 300 µM / activity at 600 µM / pIC50 / activity at 37.5 µM: Mus musculus, Ehrlich; for pIC50: in vitro
Source text: In Table 4, the effect of Tiloron (NSC 143969; 2,7-bis-[2-(diethylamino)ethoxy]fluorene-9-one) and 5-(2-dimethylaminoethoxy)-7-oxo-7H-benzo(c) fluorene hydrochloride are compared on incorporation of ^14 C-adenine and ^14 C-valine with the cellular fraction of Ehrlich's ascitic carcinoma (insoluble in trichloacetic acid). The tests in vitro reveal that the composition of the invention was more than 10 times as effective as Tiloron. The inhibition of incorporation of adenine and valine into the used system of tumor cells is considered as an indication of an anti-tumorous, cytostatic action. This biological activity of the described compound is considerably greater than that of its congener Tiloron. (See also Table 4.)
Effects of Tiloron and substance 13468 on incorporation of ^14
C-adenine and ^14 C-valine
into cellular fraction of Ehrlichs ascitic carcinoma, insoluble in
in vitro. Radioactivity incorporation expressed in cpm.
IC50 = concentration inhibiting incorporation by 50 percent.

[3] = tested on: DNA, RNA and protein biosynthesis; test: Effect on DNA, RNA and protein biosynthesis (substrate incorporation); type: cell-based; settings: substrate L-(U-14C)amino-acid mixture
Source text: as §3
The foregoing data clearly indicate that the compounds of the invention are potent inhibitors of DNA, RNA and protein biosynthesis. This is of significance because the suppression of tumor cells in a host is attained by inhibition of the biosynthesis of DNA, RNA and proteins.

**Q.** Which “Survival time of animals with respect to median” value (La leukaemia) does the source give for CN(C)CC(C)(C)COc1cc2c(c3ccccc13)-c1ccccc1C2=O [compound 13467, hydrochloride] here?
**A.** The value was 186%.

**Q.** And the pIC50 (Yoshida's Tumor)?
**A.** The pIC50 was 4.00.

**Q.** And the “Survival time of animals with respect to median” value (L1210 leukaemia)?
**A.** The value was 135%.

**Q.** What about the “Survival time of animals with respect to geom. mean” value (“Survival time … to geom. mean” below) (Yoshida's ascitic tumor; o. (oral) 5×100 mg/kg) of the same molecule?
**A.** Its value is 256%.

**Q.** And the “Survival time … to geom. mean” value (Yoshida's ascitic tumor; s.c. 5×50 mg/kg)?
**A.** Its value is 232%.

**Q.** What about the “Survival time … to geom. mean” value [1] of the same molecule?
**A.** The value was 89%.

**Q.** And the “Relative tumour size (% of control value)” value ([1]; assessed day 14, significant (&))?
**A.** The value was 45%.

**Q.** And the LD50 (Acute toxicity in mice)?
**A.** The LD50 was 550 mg/kg.

**Q.** With CCN(CC)CCOc1ccc2c(c1)C(=O)c1cc(OCCN(CC)CC)ccc1-2 [Tiloron, 2,7-bis-[2-(diethylamino)ethoxy]fluorene-9-one] as the molecule, how does the “Radioactivity incorporation, adenine” value ([2]; 75 μM) read?
**A.** The value was 1252 cpm.

**Q.** And the “Radioactivity incorporation, valine” value ([2]; 75 μM)?
**A.** Its value is 2374 cpm.

**Q.** And the “Radioactivity incorporation, adenine” value ([2]; 150 μM)?
**A.** The value was 1096 cpm.

**Q.** What about the “Radioactivity incorporation, valine” value ([2]; 150 μM) of the same molecule?
**A.** The value was 2247 cpm.

**Q.** And the “Radioactivity incorporation, adenine” value ([2]; 300 μM)?
**A.** Its value is 979 cpm.

**Q.** What about the “Radioactivity incorporation, valine” value ([2]; 300 μM) of the same molecule?
**A.** Its value is 2443 cpm.

**Q.** And the “Radioactivity incorporation, adenine” value ([2]; 600 μM)?
**A.** The value was 563 cpm.

**Q.** And the “Radioactivity incorporation, valine” value ([2]; 600 μM)?
**A.** Its value is 1944 cpm.

**Q.** And the “Radioactivity incorporation, adenine” value ([2]; 37,5 μM)?
**A.** Its value is 1160 cpm.

**Q.** What about the “Radioactivity incorporation, valine” value ([2]; 37,5 μM) of the same molecule?
**A.** The value was 2395 cpm.

**Q.** What about the activity at 75 µM ([2]; 75 μM, read-out: Incorporation of adenine relative to control (0 μM = 100%)) of the same molecule?
**A.** The activity at 75 µM was 118%.

**Q.** What about the activity at 75 µM ([2]; 75 μM, read-out: Incorporation of valine relative to control (0 μM = 100%)) of the same molecule?
**A.** Its activity at 75 µM is 97%.

**Q.** And the activity at 150 µM ([2]; 150 μM, read-out: Incorporation of adenine relative to control (0 μM = 100%))?
**A.** Its activity at 150 µM is 103%.

**Q.** And the activity at 150 µM ([2]; 150 μM, read-out: Incorporation of valine relative to control (0 μM = 100%))?
**A.** Its activity at 150 µM is 92%.

**Q.** And the activity at 300 µM ([2]; 300 μM, read-out: Incorporation of adenine relative to control (0 μM = 100%))?
**A.** The activity at 300 µM was 92%.

**Q.** And the activity at 300 µM ([2]; 300 μM, read-out: Incorporation of valine relative to control (0 μM = 100%))?
**A.** The activity at 300 µM was 100%.

**Q.** What about the activity at 600 µM ([2]; 600 μM, read-out: Incorporation of adenine relative to control (0 μM = 100%)) of the same molecule?
**A.** Its activity at 600 µM is 53%.

**Q.** And the activity at 600 µM ([2]; 600 μM, read-out: Incorporation of valine relative to control (0 μM = 100%))?
**A.** Its activity at 600 µM is 79%.

**Q.** And the pIC50 ([2]; 14C-adenine, read-out: IC50 (concentration inhibiting incorporation by 50 percent), adenine)?
**A.** Its pIC50 is 3.22.

**Q.** What about the pIC50 ([2]; 14C-valine, read-out: IC50 (concentration inhibiting incorporation by 50 percent), valine) of the same molecule?
**A.** Its pIC50 is 3.22.

**Q.** And the activity at 37.5 µM ([2]; 37,5 μM, read-out: Incorporation of adenine relative to control (0 μM = 100%))?
**A.** The activity at 37.5 µM was 109%.

**Q.** And the activity at 37.5 µM ([2]; 37,5 μM, read-out: Incorporation of valine relative to control (0 μM = 100%))?
**A.** The activity at 37.5 µM was 98%.

**Q.** And the pIC50 (Yoshida's Tumor)?
**A.** The pIC50 was 3.81.

**Q.** With O=NN(CCCl)C(=O)NC1CCCCC1 [CCNU] as the molecule, how does the pIC50 [3] read?
**A.** The pIC50 was 4.35.
